Data published in publication PMC5397516, “Insights into the Mode of Action of the Sactibiotic Thuricin CD” (Frontiers in Microbiology, 2017).
Where two headings read alike, the source gives them in different places. Where no end group is shown, it is not given here.

Columns and labels:
[1] = system: B. firmus DPC6349 cells; test: Time course flow cytometry of membrane potential (DiOC2(3)), cell size (FSC) and granularity (SSC); assay type: cell-based, Bacillus firmus
Source text: Used alone or in combination with fluorescent probes, FC enables the assessment of various structural and functional cell properties, often leading to a deeper characterization of the physiological heterogeneity of a microbial population ([Díaz et al., 2010]). Membrane potential in microbial cells can be detected by FC following staining with fluorescent lipophilic cell-permeant probes such as DiOC2(3). […] Conversely, fluorescence-independent monitoring by FC of the forward (FSC) and side-angle (SSC) light scattering properties of a bacterial population provides useful information about morphological parameters such as cell size and internal granularity/complexity, respectively ([Díaz et al., 2010]; [Shapiro, 2015]). The impact of the thuricin CD peptides, Trnα and Trnβ, on the membrane potential and morphology of sensitive B. firmus DPC6349 cells was therefore assessed by FC as follows. Cells from a 100 μl aliquot of an overnight culture were recovered by centrifugation (8260 g for 10 min), diluted 10-fold in 1 ml of LB broth and activated by incubation at 37°C for 30 min. At this point, the cells were diluted a further 25-fold and stained for 30 min with a solution of 6.3 μM DiOC2 (3) (Thermo Fisher Scientific), prepared in PBS and containing 0.21% glucose to energize the cells and thereby generate a large membrane potential. Aliquots of 1.4 ml of stained samples were acquired at medium flow rate (35 μl/sec) using a BD Accuri C6 flow cytometer (Becton Dickinson, Belgium) and a threshold of 10000 on FSC to minimize background. Acquisition and analysis of DiOC2(3) fluorescence (FL3, > 670 nm long pass), cell size (FSC) and cell complexity/granularity (SSC) were carried out using the BD Accuri C6 software v. 1.0.2 (Becton Dickinson, Belgium). The microbial population was identified based on its light scattering properties on FSC versus SSC bi-plots and a gating strategy was used to discriminate it from background particles and cell debris. The time course changes in membrane potential and morphology of DPC6349 cells following challenge with an antimicrobial were assessed using the “Run Unlimited” function of the C6 flow cytometer. Unchallenged DiOC2(3)-stained cells were initially acquired for 2 min to establish baseline levels of membrane potential and morphological parameters. Subsequently, a small aliquot of a 10–15x stock solution of an antimicrobial in PBS was added and its effect on the physiology of the sensitive target monitored over 15–25 min. The impact on the host’s membrane potential of individual, combined and sequentially added thuricin CD peptides, Trnα or Trnβ, was compared to those exerted by the proton motive force (PMF)-depleting agents Nisin A ([Bruno et al., 1992]), lacticin 3147 ([McAuliffe et al., 1998]), and valinomycin ([Shapiro, 2004]). Stock solutions of valinomycin were prepared in DMSO, whereas diluted working solutions were made using PBS. To generate high external potassium conditions and trigger the membrane depolarizing activity of valinomycin ([Shapiro, 2004]; [Cronin, 2015]), 150mM KCl was added to the PBS used to prepare the DiOC2(3) staining solution. Assays were conducted in duplicate.

[2] = system: B. firmus DPC6349; test: Minimum inhibitory concentration (MIC) assay, two-fold serial dilutions in LB broth; assay type: cell-based, Bacillus firmus; details: for MIC, fold higher than thuricin CD: B. firmus DPC6349, in molar values
Description: In this study, B. firmus DPC6349 was utilized as a surrogate thuricin CD-sensitive host, in lieu of thuricin CD-sensitive C. difficile strains. The aerobic growth conditions of DPC6349, in conjunction with its class I status, facilitated the FC experiments in this study. MIC assays were conducted as previously described with minor modifications ([Mathur et al., 2013]). Briefly, cells of the bacteriocin-sensitive strain B. firmus DPC6349 were grown overnight for 16 h in LB broth at 37°C with vigorous agitation (150 rpm). The following day, the cells were subcultured until they reached mid-logarithmic phase (an OD600 of approximately 0.5). At this point, cells were diluted such that the final inoculum for MIC assays was approximately 5 × 10^5 cfu/ml. Thuricin CD peptides, Nisin A and lacticin 3147 peptides were resuspended in LB broth. The potassium ionophore, valinomycin, was initially reconstituted in DMSO (Molecular Probes) prior to diluting in PBS and subsequently diluting in LB broth. All antimicrobials were finally diluted in LB broth to give the desired starting concentrations and two-fold serial dilutions were performed in 96-well microtitre plates, for MIC assays. MIC readings were taken at 18 h and the MIC was defined as the lowest concentration of the antimicrobial at which there was no visible growth of the target strain. Assays were conducted in triplicate.

[3] = B. firmus DPC6349, approx. 5 × 10^5 cfu/ml, LB broth, read at 18 h, no visible growth, triplicate

Compound | Effect on membrane potential and cell size ([1]; (approximately 3x MIC), DiOC2(3)) | MIC [2, 3] | MIC, fold higher than thuricin CD [2] | MIC ([2]; Cytobacillus firmus, B. firmus DPC6349, approx. 5 × 10^5 cfu/ml, LB broth, read at 18 h, no visible growth, triplicate, read-out: MIC) | Effect on cell size and granularity ([1]; 156 nM (0.25x MIC), 150 mM extracellular KCl) | Effect on membrane potential ([1]; 156 nM (0.25x MIC), 150 mM extracellular KCl, DiOC2(3)) | MIC ([2]; Cytobacillus firmus, DPC6349, 18 h) | Effect on cell size (FSC) and granularity (SSC) ([1]; 3 μM (approximately 10x MIC)) | Effect on membrane potential ([1]; 3 μM (approximately 10x MIC), DiOC2(3) red fluorescence) | Time to membrane depolarization after adding the peptide ([1]; 3 μM (approximately 10x MIC), DiOC2(3)-stained energized cells, duplicate) | MIC ([2]; B. firmus DPC6349, approx. 5 × 10^5 cfu/ml, LB broth, read at 18 h, no visible growth, triplicate, read-out: MIC)
O=C(N[C@H](CO)[C@H](O)c1ccc([N+](=O)[O-])cc1)C(Cl)Cl [Chloramphenicol, chloramphenicol] | no membrane depolarization and reduction in cell size | 2.423 µg/mL | 60 fold | 7.5 µM | – | – | – | – | – | – | –
CC(C)[C@@H]1NC(=O)[C@H](C)OC(=O)[C@@H](C(C)C)NC(=O)[C@@H](C(C)C)OC(=O)[C@H](C(C)C)NC(=O)[C@H](C)OC(=O)[C@@H](C(C)C)NC(=O)[C@@H](C(C)C)OC(=O)[C@H](C(C)C)NC(=O)[C@H](C)OC(=O)[C@@H](C(C)C)NC(=O)[C@@H](C(C)C)OC1=O [Valinomycin, valinomycin] | – | 0.69 µg/mL | five-fold higher | – | no reduction in cell size or granularity | immediate and sharp membrane depolarization | 0.625 µM | – | – | – | –
Nisin A (ITSISLCTPGCKTGALMGCNMKTATCHCSIHVSK; also: lantibiotic post-translational modifications (thioether rings), not given here; UniProt P13068 24-57, looked up) [pore-forming single-component lantibiotic bacteriocin] | – | 1.046 µg/mL | approximately 2.5 fold | – | – | – | – | decreases in cell size (FSC) and granularity/complexity (SSC) | very fast membrane depolarization | ≤ 4 min | 0.312 µM
